Source: patent US12466807B2, “Salt and crystal form of a FAK inhibitor” (Amplia Therapeutics Limited, priority 2019, dated 2025)

Test: Salt disproportionation studies
Type: physicochemical
Settings: for XRPD Result: solid after 24 h in deionized water
Description: Salt disproportionation studies were carried out as follows: • Approximately 10-20 mg of Formula I free base, L-tartrate Pattern 1 were weighed into HPLC vials. • 1 mL deionized water was then added to each vial and the vials capped and shaken at ambient temperature for 24 hours. • After this time, the samples were transferred to centrifuge tubes with nylon filters (0.22 μm) and centrifuged for approximately 15 minutes. The isolated solids were analyzed by XRPD and the filtrates analyzed by HPLC for concentration determination and the pH of all the filtrates were measured with a pH meter.

Salt disproportionation (deionized water, 24 h): no evidence of disproportionation
Water pH Post-24 h (deionized water, 24 h, ambient temperature, listed as L-Tartrate Pattern 1): 3.43
XRPD Result (listed as Formula I L-tartrate Pattern 1): L-tartrate Pattern 2
XRPD Result (listed as L-Tartrate Pattern 1): L-Tartrate Pattern 2
SMILES: COc1cc(C2CCN(C)CC2)ccc1Nc1ncc(C(F)(F)F)c(CCc2ccccc2CC(N)=O)n1 [L-Tartrate]
